Numbering of substitutions follows the chain as printed.
How the values were obtained:
[1] = target: T1, AR (cytosol from LnCaP cells) (Homo sapiens, UniProt P10275, T878A); test: AR binding assay; settings: 3H-R1881 1 nM, 4° C. 24 hrs
T1 construct: endogenous in cells; host or cells: LNCaP cytosol
T1 sequence (P10275 1-920 T878A): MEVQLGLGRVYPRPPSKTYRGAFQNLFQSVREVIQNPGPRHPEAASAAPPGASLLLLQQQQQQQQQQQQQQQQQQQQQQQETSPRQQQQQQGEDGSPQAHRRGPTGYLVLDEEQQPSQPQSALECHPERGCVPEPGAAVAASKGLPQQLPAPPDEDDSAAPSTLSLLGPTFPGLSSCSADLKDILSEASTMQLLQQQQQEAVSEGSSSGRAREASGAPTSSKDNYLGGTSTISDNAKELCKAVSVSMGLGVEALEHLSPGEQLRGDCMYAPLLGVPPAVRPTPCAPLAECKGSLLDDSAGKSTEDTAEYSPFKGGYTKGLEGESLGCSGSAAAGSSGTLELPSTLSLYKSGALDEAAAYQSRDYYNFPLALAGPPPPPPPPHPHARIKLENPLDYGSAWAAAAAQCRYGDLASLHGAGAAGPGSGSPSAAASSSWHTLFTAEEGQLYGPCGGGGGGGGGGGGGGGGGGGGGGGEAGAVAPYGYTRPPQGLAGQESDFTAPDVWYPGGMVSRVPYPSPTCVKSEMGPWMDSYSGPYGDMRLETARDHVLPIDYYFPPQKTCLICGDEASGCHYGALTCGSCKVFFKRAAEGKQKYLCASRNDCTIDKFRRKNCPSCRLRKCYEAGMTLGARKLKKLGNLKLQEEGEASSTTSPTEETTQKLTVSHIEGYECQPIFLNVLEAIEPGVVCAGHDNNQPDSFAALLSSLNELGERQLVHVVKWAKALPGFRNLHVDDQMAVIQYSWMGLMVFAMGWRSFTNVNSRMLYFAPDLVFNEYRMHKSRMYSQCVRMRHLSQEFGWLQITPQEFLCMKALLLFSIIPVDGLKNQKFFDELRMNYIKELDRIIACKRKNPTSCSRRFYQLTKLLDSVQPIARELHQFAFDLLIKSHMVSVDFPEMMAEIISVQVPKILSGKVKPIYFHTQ
Experimental: AR binding assay: To assess AR binding, test compound (top dose 10 μM, 4 fold serial dilution, 8 point dose response) and control (progesterone) were transferred to the assay plate. Cytosol from LnCaP cells was added to the plate, followed by addition of radiolabeled ^3H-R1881 at a final concentration of 1 nM. The plate was sealed, and the reaction was incubated at 300 rpm at 4° C. for 24 hrs. Radioligand absorption buffer (10 mM Tris-HCl, pH 7.4; 1.5 mM EDTA; 1 mM DTT; 0.25% charcoal; 0.0025% dextran) was then added to the plate, mixed, and incubated at 4° C. for 15 minutes. The plate was then centrifuged at 3000 rpm for 30 minutes at 4° C. The supernatant was transferred to the scint-tube and Tri-carb was used for scintillation counting.

[2] = target: T2, full-length androgen receptor (HEK293 cells stably expressing) (Homo sapiens, UniProt P10275); test: AR antagonism assay; format: cell-based; settings: testosterone 1 nM, 20 h, Steady-glo
T2 construct: HEK293 cells stably expressing the full-length androgen receptor were seeded; expressed in transfected cells
T2 sequence (P10275 1-920): T1 sequence (P10275 1-920 T878A) with A878T
Experimental: AR antagonism assay: To evaluate AR antagonist activity, test compound was added to the assay plate (top dose 10 μM, 3 fold serial dilution, 10 point dose response). HEK293 cells stably expressing the full-length androgen receptor were seeded at a density of 20000 cells/well in the assay plate. The assay plate was then incubated at room temperature for 10 minutes and at 37° C., 5% CO2 for 20 minutes. Testosterone is added to the assay plate at 1 nM final concentration and the assay plate incubated at 37° C., 5% CO2 for 20 h. After the incubation period, Steady-glo was added to the assay plate and mixed at room temperature for 20 minutes on an orbital shaker, before reading out on the EnVision plate reader.

LNCap cells = test: Cell viability assay LNCap; format: cell-based; settings: Homo sapiens, 144 h, 6 days, CellTiterGlo
Experimental: (§1) Cell viability assay: LNCap, 22Rv1, MCF7, MDAMB361, T47D, and IEC6 cells were seeded at a density of 500-2000 cells/well in 96 well plates, and a ‘T0’ (timepoint 0) was included along with the assay plate. The plates were then incubated at 37° C., 5% CO2 in a cell culture incubator overnight. On the next day, the ‘T0’ plate was assayed using CellTiterGlo (Promega, Inc) according to the manufacturer's instructions. The appropriate compounds were diluted in DMSO and added to the assay plate (final DMSO concentration of 0.1-0.2%) on the next day. The assay plates were incubated for 6 days at 37° C., 5% CO2. After the incubation period, the plates were assayed using CellTiterGlo (Promega, Inc) according to the manufacturer's instructions and luminescence was read on the EnVision plate reader. Inhibition of the tested compounds was determined by the following formula: Inhibition rate (%)=(1−(RLU compound−RLU day0)/(RLU control−RLU day0))*100%. GraphPadPrism was used to analyze the data and determine GI50/IC50 values.

22Rv1 cells = test: Cell viability assay 22Rv1; format: cell-based; settings: Homo sapiens, 22Rv1, 144 h; 6 days, CellTiterGlo
Experimental: as §1

IEC6 cells = test: Cell viability assay IEC6; format: cell-based; settings: Rattus norvegicus, IEC-6, 144 h; 6 days, CellTiterGlo
Experimental: as §1

| SMILES | IC50 [1] | IC50 [2] | GI50 (LNCap cells) | GI50 (22Rv1 cells) | IC50 (IEC6 cells) |
| --- | --- | --- | --- | --- | --- |
| CCc1cc2ncc(CN3CCN(Cc4ccc(-c5nnc([C@H](Nc6ccc(C#N)c(Cl)c6)[C@H](C)O)o5)cc4)CC3)cc2[nH]c1=O [Compound 68, 2-Chloro-4-(((1R,2S)-1-(5-(4-((4-((7-ethyl-6-oxo-5,6-dihydro-1,5-naphthyridin-3-yl)methyl)piperazin-1-yl)methyl)phenyl)-1,3,4-oxadiazol-2-yl)-2-hydroxypropyl)amino)benzonitrile] | > 10 µM | > 10 µM | 0.5 to 5 µM | 5 to 30 µM | > 30 µM |
| CCc1cc2ncc(CN3CCN(c4ccc(C(=O)N5CCN(C(=O)C6CCN(c7ccc(C(=O)N[C@H]8CC[C@H](Oc9ccc(C#N)c(Cl)c9)CC8)nn7)CC6)CC5)nc4)CC3)cc2[nH]c1=O [Compound 60, N-((1r,4r)-4-(3-Chloro-4-cyanophenoxy)cyclohexyl)-6-(4-(4-(5-(4-((7-ethyl-6-oxo-5,6-dihydro-1,5-naphthyridin-3-yl)methyl)piperazin-1-yl)picolinoyl)piperazine-1-carbonyl)piperidin-1-yl)pyridazine-3-carboxamide] | < 0.1 µM | > 10 µM | 0.5 to 5 µM | 0.5 to 5 µM | > 30 µM |
| CCc1cc2ncc(CN3CCN(c4ccc(C(=O)N5CCN(CC6CCN(c7ccc(C(=O)N[C@H]8CC[C@H](Oc9ccc(C#N)c(Cl)c9)CC8)nn7)CC6)CC5)nc4)CC3)cc2[nH]c1=O [Compound 59, N-((1r,4r)-4-(3-Chloro-4-cyanophenoxy)cyclohexyl)-6-(4-((4-(5-(4-((7-ethyl-6-oxo-5,6-dihydro-1,5-naphthyridin-3-yl)methyl)piperazin-1-yl)picolinoyl)piperazin-1-yl)methyl)piperidin-1-yl)pyridazine-3-carboxamide] | < 0.1 µM | > 10 µM | 0.5 to 5 µM | 0.5 to 5 µM | > 30 µM |
| CCc1cc2ncc(CN3CCN(Cc4ccc(-c5nnc([C@H](Nc6ccc(C#N)c(Cl)c6C)[C@H](C)O)o5)cc4)CC3)cc2[nH]c1=O [Compound 69, 2-Chloro-4-(((1R,2S)-1-(5-(4-((4-((7-ethyl-6-oxo-5,6-dihydro-1,5-naphthyridin-3-yl)methyl)piperazin-1-yl)methyl)phenyl)-1,3,4-oxadiazol-2-yl)-2-hydroxypropyl)amino)-3-methylbenzonitrile] | > 10 µM | > 10 µM | 0.5 to 5 µM | 5 to 30 µM | > 30 µM |
| CCc1cc2ncc(CN3CCN(CC4CCN(c5ccc(C(=O)N[C@H]6CC[C@H](N(C)c7ccc(C#N)c(Cl)c7)CC6)nn5)CC4)CC3)cc2[nH]c1=O [Compound 67, N-((1R,4R)-4-((3-Chloro-4-cyanophenyl)(methyl)amino)cyclohexyl)-6-(4-((4-((7-ethyl-6-oxo-5,6-dihydro-1,5-naphthyridin-3-yl)methyl)piperazin-1-yl)methyl)piperidin-1-yl)pyridazine-3-carboxamide] | < 0.1 µM | > 10 µM | ≤ 0.5 µM | ≤ 0.5 µM | > 30 µM |
| CCc1cc2ncc(CN3CCN(c4ccc(-c5nnc([C@H](Nc6ccc(C#N)c(Cl)c6C)[C@H](C)O)o5)cc4)CC3)cc2[nH]c1=O [Compound 64, 2-Chloro-4-(((1R,2S)-1-(5-(4-(4-((7-ethyl-6-oxo-5,6-dihydro-1,5-naphthyridin-3-yl)methyl)piperazin-1-yl)phenyl)-1,3,4-oxadiazol-2-yl)-2-hydroxypropyl)amino)-3-methyl Benzonitrile] | 1 to 10 µM | > 10 µM | 0.5 to 5 µM | 5 to 30 µM | 0.5 to 5 µM |
| CCc1cc2ncc(CN3CCN(c4ccc(C(=O)NCC5CCN(c6ccc(C(=O)N[C@H]7CC[C@H](Oc8ccc(C#N)c(Cl)c8)CC7)nn6)CC5)nc4)CC3)cc2[nH]c1=O [Compound 1, N-((1r,4r)-4-(3-Chloro-4-cyanophenoxy)cyclohexyl)-6-(4-((5-(4-((7-ethyl-6-oxo-5,6-dihydro-1,5-naphthyridin-3-yl)methyl)piperazin-1-yl)picolinamido)methyl)piperidin-1-yl)pyridazine-3-carboxamide] | 0.1 to 1 µM | > 10 µM | ≤ 0.5 µM | 0.5 to 5 µM | > 30 µM |
| CCc1cc2ncc(CN3CCN(c4ccc(-c5nnc([C@H](Nc6ccc(C#N)c(Cl)c6)[C@H](C)O)o5)cc4)CC3)cc2[nH]c1=O [Compound 63, 2-Chloro-4-(((1R,2S)-1-(5-(4-(4-((7-ethyl-6-oxo-5,6-dihydro-1,5-naphthyridin-3-yl)methyl)piperazin-1-yl)phenyl)-1,3,4-oxadiazol-2-yl)-2-hydroxypropyl)amino)benzonitrile] | 0.1 to 1 µM | > 10 µM | 0.5 to 5 µM | 5 to 30 µM | > 30 µM |
| CCc1cc2ncc(CN3CCN(C[C@H]4CC[C@H](COc5cc(F)c([C@@H]6c7[nH]c8ccccc8c7C[C@@H](C)N6CC(C)(C)F)c(F)c5)CC4)CC3)cc2[nH]c1=O [Compound 75, 7-((4-(((1R,4r)-4-((3,5-Difluoro-4-((1R,3R)-2-(2-fluoro-2-methylpropyl)-3-methyl-2,3,4,9-tetrahydro-1H-pyrido[3,4-b]indol-1-yl)phenoxy)methyl)cyclohexyl)methyl)piperazin-1-yl)methyl)-3-ethyl-1,5-naphthyridin-2(1H)-one] |  |  |  |  | 5 to 30 µM |

From US12006314B2, “Anti-cancer nuclear hormone receptor-targeting compounds” (Nuvation Bio Inc., priority 2021, dated 2024)
